Test results published in patent US10213449B2, “Compositions and methods for treating medulloblastoma” (The Board of Trustees of the Leland Stanford Junior …, priority 2016, dated 2019).
Entries after “also recorded” stand apart in the source; their conditions may differ.

System: MB cell lines (MB55, MB21, MB53)
Test: Cell viability of MB cell lines (CellTiter-Glo)
Type: cell-based, mouse
Conditions: multiple MB cell lines derived from Ptch1+/− and Ptch1+/−; Trp53−/− mice
Method: Ptch+/−MB cell lines MB55 and MB21 were kindly gifted from Dr. Rosalind Segal (Dana Farber Cancer Institute, Harvard Medical School) and Ptch^+/−; p53^−/− MB53 cells were kindly gifted from Charles Rudin (Memorial Sloan-Kettering Cancer Center). All cell lines were validated for high Gli activity. Cell viability was assessed using CellTiter-Glo (G7573, Promega, WI, USA) according to the manufacturers instructions. Cells were plated at 10000 cells/well in 96-well plates, treated with drugs as indicated and data was collected on a TECAN Infinite 200 plate reader.

## Brc1c(Br)c(Br)c2[nH]nnc2c1Br [TBB, 4,5,6,7-tetrabromo-2H-benzotriazole]
  cell viability: decreased; also recorded: dose dependent tumoricidal effects
